The NIST ThermoML archive (doi:10.1021/je800463k)
Numbers after ± are expanded uncertainties.

Test: mn = molality of the nth substance listed, in mol/kg
Details: 101 kPa, Liquid; for speed of sound / viscosity: 308.15 K; for speed of sound: Frequency=2 MHz; for mass density: Pycnometric method; for electrical conductivity: 313.15 K, Frequency=0.001 MHz, Alternating current cell with electrodes

What does the source list for `CC(=O)[O-].CC(=O)[O-].[Mg+2]` [magnesium acetate] + CO?
speed of sound (m1 = 0.0855): 1073.8 ± 6.3 m/s; speed of sound (m1 = 0.1024): 1077.1 ± 6.3 m/s; speed of sound (m1 = 0.1402): 1078.5 ± 6.3 m/s; speed of sound (m1 = 0.1455): 1075.3 ± 6.3 m/s; speed of sound (m1 = 0.1837): 1078.1 ± 6.3 m/s; speed of sound (m1 = 0.2192): 1081.5 ± 6.4 m/s; speed of sound (m1 = 0.2422): 1081.2 ± 6.4 m/s; speed of sound (m1 = 0.2889): 1082 ± 6.4 m/s; speed of sound (m1 = 0.3042): 1083.6 ± 6.4 m/s; viscosity (m1 = 0.014): 0.4859 ± 0.014 mPa·s; viscosity (m1 = 0.018): 0.4878 ± 0.014 mPa·s; viscosity (m1 = 0.0339): 0.496 ± 0.014 mPa·s; viscosity (m1 = 0.0646): 0.5027 ± 0.014 mPa·s; viscosity (m1 = 0.1012): 0.5234 ± 0.015 mPa·s; viscosity (m1 = 0.13): 0.532 ± 0.015 mPa·s; viscosity (m1 = 0.1402): 0.5368 ± 0.015 mPa·s; viscosity (m1 = 0.17): 0.5518 ± 0.015 mPa·s; viscosity (m1 = 0.2003): 0.5625 ± 0.015 mPa·s; viscosity (m1 = 0.2422): 0.5782 ± 0.016 mPa·s; viscosity (m1 = 0.2453): 0.578 ± 0.016 mPa·s; viscosity (m1 = 0.2889): 0.5942 ± 0.016 mPa·s; mass density (308.2 K, m1 = 0.0093): 779.23 ± 0.92 kg/m3; mass density (308.7 K, m1 = 0.1112): 786.87 ± 4 kg/m3; mass density (308.9 K, m1 = 0.053): 781.63 ± 1.7 kg/m3; mass density (308.9 K, m1 = 0.1798): 791.35 ± 3.8 kg/m3; mass density (308.9 K, m1 = 0.2003): 791.74 ± 1.9 kg/m3; mass density (308.9 K, m1 = 0.2668): 795.13 ± 5.8 kg/m3; mass density (308.95 K, m1 = 0.0855): 783.63 ± 3 kg/m3; mass density (309.1 K, m1 = 0.0059): 777.74 ± 0.75 kg/m3; mass density (309.1 K, m1 = 0.1455): 788.87 ± 4 kg/m3; mass density (309.45 K, m1 = 0.2192): 791.87 ± 7.4 kg/m3; mass density (309.5 K, m1 = 0.3042): 796.38 ± 5.7 kg/m3; mass density (309.75 K, m1 = 0.0646): 782.66 ± 1.9 kg/m3; mass density (309.95 K, m1 = 0.2422): 793.32 ± 4.9 kg/m3; mass density (310.25 K, m1 = 0.014): 778.28 ± 0.86 kg/m3; mass density (310.25 K, m1 = 0.0339): 779.95 ± 1.3 kg/m3; mass density (310.5 K, m1 = 0.1402): 787 ± 3.7 kg/m3; mass density (310.65 K, m1 = 0.0093): 776.87 ± 0.86 kg/m3; mass density (311 K, m1 = 0.2668): 793.11 ± 5.2 kg/m3; mass density (311.2 K, m1 = 0.1112): 784.4 ± 3.9 kg/m3; mass density (311.2 K, m1 = 0.3042): 794.7 ± 5.7 kg/m3; mass density (311.4 K, m1 = 0.053): 779.24 ± 1.8 kg/m3; mass density (311.5 K, m1 = 0.0855): 781.28 ± 3 kg/m3; mass density (311.5 K, m1 = 0.1798): 788.93 ± 3.3 kg/m3; mass density (311.55 K, m1 = 0.0059): 775.36 ± 0.52 kg/m3; mass density (311.6 K, m1 = 0.1455): 786.44 ± 4.2 kg/m3; mass density (311.9 K, m1 = 0.2192): 789.45 ± 2.4 kg/m3; mass density (312.1 K, m1 = 0.1402): 785.37 ± 4.2 kg/m3; mass density (312.15 K, m1 = 0.0646): 780.21 ± 2 kg/m3; mass density (312.3 K, m1 = 0.0093): 775.23 ± 0.88 kg/m3; mass density (312.35 K, m1 = 0.2003): 788.52 ± 4.2 kg/m3; mass density (312.45 K, m1 = 0.2422): 790.83 ± 8.1 kg/m3; mass density (312.7 K, m1 = 0.0339): 777.5 ± 1 kg/m3; mass density (312.75 K, m1 = 0.014): 775.84 ± 0.97 kg/m3; mass density (312.9 K, m1 = 0.053): 777.6 ± 1.4 kg/m3; mass density (313.05 K, m1 = 0.0855): 779.61 ± 2.5 kg/m3; mass density (313.1 K, m1 = 0.2668): 791.07 ± 4.7 kg/m3; electrical conductivity (m1 = 0.0059): 0.0376 ± 0.0001 S/m; electrical conductivity (m1 = 0.0093): 0.0598 ± 0.0001 S/m
